{"source": "patent US9334500B2", "about": "“Methods and pharmaceutical compositions for treating cancer” (Agency for Science, Technology and Research, priority 2011, dated 2016)", "key": {"ZEB1 and ZEB2": {"test_system": "ZEB1 and ZEB2", "experiment": "Western blot of ZEB1 and ZEB2 expression", "type": "cell-based, human", "conditions": "MB231 and BT549 overexpressing mimics", "procedure": "(§1) All siRNA were designed by 1st Base Singapore except for ETS1 siRNA#1 which was referenced from a previously published paper^7. Oligo miRNA mimics and antagomirs were purchased from Dharmacon, Inc. (Chicago, Ill., USA). For transfection, 30 nM siRNAs, 15 nM miRNA mimics or 100 nM iRNA antagomirs were used to transfect cells. 48 h after transfection cell pellets were collected and subjected indicated assays.\n(§2) Western Blotting was performed as described previously^9. Anti-UBASH3B (ab34781) was purchased from Abcam. Anti-EGFR (cs2232), anti-CBL (cs2747) and anti-Pan phosphor-Tyr (cs9411) was purchased from Cell Signaling. Anti-ETS1 (sc350), anti-ZEB1 (sc-2538.8), and anti-ZEB2 (sc-48789) were obtained from Santa Cruz. Anti-Myc and anti-Actin were purchased from Roche Applied Science and Sigma-Aldrich, respectively."}, "UBASH3B expression": {"test_system": "UBASH3B expression", "experiment": "Real-time PCR and Western blot analysis of UBASH3B expression", "type": "cell-based, human", "procedure": "as §1\nTotal RNA including small RNAs was isolated using RNeasy Mini Kit (Qiagen). The microarray hybridization was performed using the Illumina HumanHT-12 V4.0 expression beadchip, and data analysis was performed using GeneSpring software from Agilent Technologies. Microarray data reported herein have been deposited at the NCBI Gene Expression Omnibus with the accession number GSE36693. Reverse transcription and quantitative PCR assays were performed using High Capacity cDNA Archive kit and KAPA SyBr Fast qPCR kit (KAPA Biosystems), respectively. TaqMan MicroRNA assays were used to quantify the level of mature miRNAs as previously described^8. Briefly, 10 ng of total RNA was reverse-transcribed and product was subjected to TaqMan stemloop miRNA assay (Applied Biosystems). RNU6B was used to normalize the data. For quantification of mRNA levels, 18S level was used as internal control. All reactions were analyzed in an Applied Biosystems 7500 Fast. Real-Time PCR system in 96-well plate format. Real-time primer sequences are listed in Supplementary Table 2.\nas §2"}, "UBASH3B 3'-UTR": {"test_system": "UBASH3B 3'-UTR", "experiment": "Luciferase reporter assay with UBASH3B 3'-UTR reporters", "type": "cell-based", "conditions": "wild type vs miR-200a binding site mutated reporters; 40 nM mimics", "procedure": "HCT116 cells were plated at a density of 5×10^4 cells per well in 24-well plate format and transfected with 10 ng of pMIR REPORT containing the respective miRNA responsive regions of UBASH3B 3′ UTR sequence, 40 nM of miRNA mimics and 5 ng of pRL null internal control simultaneously on the next day. At 48 h after transfection, the luciferase activities were measured using the Dual Luciferase system (Promega). All luciferase readings were first normalized to corresponding internal control pRL null Renilla luciferase readings. The resulting relative activities were further normalized to appropriate controls."}, "MB231-LN": {"test_system": "MB231-LN", "experiment": "Methylcellulose assay (anchorage-independent growth)", "conditions": "for EC50: Homo sapiens"}, "MB231-LN xenograft tumor": {"test_system": "MB231-LN xenograft tumor", "experiment": "MB231-LN subcutaneous xenograft tumor growth with Erlotinib treatment", "type": "in vivo, mice", "conditions": "100 mg/kg oral gavage, 6 days per week for 4 weeks", "method": "All raw measurements were presented as mean±SEM (standard error of the mean). Comparisons of curves between primary tumor and BLI lung metastasis growth were performed using repeated Anova analysis. Survival analysis was performed using Kaplan-Meier estimator and log-rank test. The relative hazard ratio between different groups was calculated based on Cox-proportional hazards model and presented as HR (95% CI). Other comparisons were performed using unpaired two-sided Student's t-test without equal variance assumption or nonparametric Mann-Whitney test. All statistic calculations were performed with Excel, Stata 7 and EPI info. […] For in vivo Erlotinib treatment, both control cell and UBASH3B KD MB231-LN cells were subcutaneously injected into 6-8 week female nude mice at 5×10^6 cells, followed by treatment with vehicle or Erlotinib (LC lab, #E-4007) at 100 mg/kg by oral gavage with 6 consecutive days per week for 4 weeks after average tumor volume reached around 150 mm^3. Tumors were measured by calliper three times per week and tumors volume was calculated with formula: V=W*W*L/2."}, "[1]": {"test_system": "SUM159PT-R (Paclitaxel-resistant SUM159PT) cells", "experiment": "Cell viability assay after Paclitaxel treatment", "type": "cell-based", "conditions": "Paclitaxel-resistant SUM159PT with UBASH3B knockdown; 72 hrs", "procedure": "Cell viability assay was performed and EC50 of Paclitaxel in each sample was determined and shown at the top. UBASH3B knockdown efficiency was assessed by Western blotting, shown at the bottom. *P<0.05, paired two-tailed t-test. Error bars, mean+SEM.\nCell viability was determined using CellTiter-Glo Luminescent Cell Viability Assay (Promega) as instructed by manufacturer's manual. 1000 cells were plated in 96-well plate and the readings were taken for 5 consecutive days using CellTiter-Glo kit (Promega)."}}, "note": "Where two headings read alike, the source gives them in different places.", "data": [{"molecule": "miR-200a: oligo miRNA mimic purchased from Dharmacon (UAACACUGUCUGGUAACGAUGU; listed as RNA, chemistry not given here)", "values": [{"measurement": "expression of ZEB1 and ZEB2", "setting": "ZEB1 and ZEB2", "result": "could repress"}, {"measurement": "UBASH3B expression", "setting": "UBASH3B expression; BT549 cells, miR-200a overexpression combined with ETS1 knockdown", "result": "more pronounced downregulation"}, {"measurement": "UBASH3B mRNA and protein expression", "setting": "UBASH3B expression; enforced expression of mimics in invasive breast and prostate cancer cells", "result": "able to reduce"}, {"measurement": "targeting and inhibition of UBASH3B 3'-UTR reporter", "setting": "UBASH3B 3'-UTR", "result": "direct and specific targeting and inhibition"}]}, {"molecule": "N#CC(=C(/N)Sc1ccccc1N)/C(C#N)=C(\\N)Sc1ccccc1N", "note": "[U0126]", "values": [{"measurement": "UBASH3B expression", "setting": "UBASH3B expression; MB231 cells, 5 μM, real-time PCR, indicated time points", "result": "decrease the UBASH3B expression in a time-dependent manner"}]}, {"molecule": "C#Cc1cccc(Nc2ncnc3cc(OCCOC)c(OCCOC)cc23)c1", "note": "[Erlotinib]", "values": [{"measurement": "EC50", "setting": "MB231-LN; read-out: EC50 of Erlotinib, MB231-LN cells with UBASH3B depletion", "result": 3850, "unit": "nM"}, {"measurement": "EC50", "setting": "MB231-LN; read-out: EC50 of Erlotinib, MB231-LN control cells, without UBASH3B depletion", "result": 450, "unit": "nM"}, {"measurement": "sensitivity of cells to Erlotinib treatment", "setting": "MB231-LN; UBASH3B-depleted MB231 with ectopic overexpression of EGFR", "result": "restored the sensitivity"}, {"measurement": "xenograft tumor growth response to Erlotinib", "setting": "MB231-LN xenograft tumor; UBASH3B depleted tumors", "result": "irresponsive"}, {"measurement": "xenograft tumor growth response to Erlotinib", "setting": "MB231-LN xenograft tumor; control tumors", "result": "marked growth inhibition"}]}, {"molecule": "CC(=O)O[C@H]1C(=O)[C@@]2(C)[C@H]([C@H](OC(=O)c3ccccc3)[C@]3(O)C[C@H](OC(=O)[C@H](O)[C@@H](NC(=O)c4ccccc4)c4ccccc4)C(C)=C1C3(C)C)[C@]1(OC(C)=O)CO[C@@H]1C[C@@H]2O", "note": "[Paclitaxel]", "values": [{"measurement": "EC50", "setting": "MB231-LN; read-out: EC50 of Paclitaxel, cells with UBASH3B depletion", "result": 0.61, "unit": "nM"}, {"measurement": "EC50", "setting": "MB231-LN; read-out: EC50 of Paclitaxel, control cells, without UBASH3B depletion", "result": 4.53, "unit": "nM"}, {"measurement": "sensitivity to Paclitaxel treatment", "setting": "[1]", "result": "increased sensitivity"}]}]}
